Measurements: ChEMBL document CHEMBL1201862, “PubChem BioAssay data set” (2004)
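Five compound concentrations were applied to cells in 96-well plates for 48 hours; endpoints were derived by simple linear interpolation of the resulting dose-response curve. GI50 marks 50% less growth.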 The source made the active and inactive calls. No stated cut-off is given here; in the data, active = GI50 up to about 1.1 µM and inactive = higher.

Legend:
Experiment in all cases: growth of human tumour cells (NCI), 48 h
[1] = system: CAKI-1
[2] = system: SW-620
[3] = system: SK-MEL-28
[4] = system: SNB-19
[5] = system: K562
[6] = system: NCI-H522
[7] = system: M14
[8] = system: MDA-MB-435
[9] = system: HT-29
[10] = system: SK-MEL-2
[11] = system: NCI/ADR-RES
[12] = system: MCF7
[13] = system: SF-295
[14] = system: SNB-75
[15] = system: MDA-N
[16] = system: A498
[17] = system: SN12C
[18] = system: HOP-62
[19] = system: U-251

Measured: GI50

COC(=O)N1C2C(C[C@@]1(C)C(=O)OC)c1ccccc1N2S(=O)(=O)c1ccccc1 (stereo not given in full)
inactive: [1] > 100 µM | [2] > 100 µM | [3] > 100 µM | [4] > 100 µM | [5] > 100 µM | [6] > 100 µM | [7] > 100 µM | [8] > 100 µM | [9] > 100 µM | [10] > 100 µM | [11] > 100 µM | [12] > 100 µM | [13] > 100 µM | [14] > 100 µM | [15] > 100 µM

C=CC1(CC/C(=C\[N+](=O)[O-])c2ccc(OC)c(OC)c2)OCC(C)(C)CO1
inactive: [1] 23.2 µM | [2] 26.9 µM | [3] 19.8 µM | [4] 16.9 µM | [5] 6.61 µM | [6] 13.8 µM | [16] > 10 µM | [7] 17.8 µM | [8] 19.7 µM | [17] 21 µM | [18] 18.3 µM | [9] 19.9 µM | [19] 23.1 µM | [10] 19.1 µM | [11] 13.9 µM | [12] 13.9 µM | [13] 18.7 µM | [15] 21.8 µM

CC(=O)/C=C1\Nc2sc(C)c(C)c2C(=O)S1
inactive: [1] 65.3 µM | [2] 63.5 µM | [3] > 100 µM | [4] > 100 µM | [5] 60.4 µM | [16] > 100 µM | [7] 97.7 µM | [8] 47.3 µM | [17] 84.3 µM | [18] 89.7 µM | [9] 34.1 µM | [19] 50.2 µM | [10] 24.2 µM | [11] 37.1 µM | [12] 29.6 µM | [13] 48 µM | [14] 24 µM | [15] 88.3 µM

COC(=O)C1Cc2c([nH]c3ccccc23)-c2[nH]c3ccccc3c2CC(NC(C)=O)C(=O)N2CCCC2C(=O)N1 (stereo not given)
inactive: [1] > 100 µM | [2] > 100 µM | [3] > 100 µM | [4] > 100 µM | [5] > 100 µM | [6] 36.1 µM | [8] > 100 µM | [17] > 100 µM | [18] > 100 µM | [9] > 100 µM | [19] > 100 µM | [10] > 100 µM | [11] > 100 µM | [12] > 100 µM | [13] > 100 µM | [14] > 100 µM | [15] > 100 µM

O=C(c1ccccc1)c1ccc2[nH]c(-c3c(Cl)c(Cl)c(Cl)c(Cl)c3C(=O)N/N=C/c3cccc(Oc4ccccc4)c3)nc2c1
inactive: [1] > 100 µM | [2] 56.1 µM | [3] > 100 µM | [4] 69.2 µM | [5] 46.5 µM | [6] 45 µM | [7] > 100 µM | [8] 38.1 µM | [17] > 100 µM | [18] 65.2 µM | [9] > 100 µM | [19] 54.7 µM | [10] 46.2 µM | [11] 95.1 µM | [12] 42 µM | [13] 54.7 µM | [14] 60.8 µM | [15] 46.5 µM

O=C(c1ccccc1)c1ccc(COc2ccc(C(c3c(O)c4ccccc4oc3=O)c3c(O)c4ccccc4oc3=O)cc2)cc1
inactive: [1] 22.8 µM | [2] 25.7 µM | [3] 17.9 µM | [4] 23.4 µM | [5] 19.9 µM | [6] 18.2 µM | [8] 20.2 µM | [17] 43.8 µM | [18] 20.5 µM | [9] 18.3 µM | [19] 89.3 µM | [10] 18.2 µM | [11] 19.5 µM | [12] 27.8 µM | [13] 19.4 µM | [14] 18.5 µM | [15] 26.5 µM

C=CC(Br)(CBr)CCC(Br)C(C)(C)Cl (stereo not given)
inactive: [2] 2.05 µM | [3] 2.36 µM | [4] 1.71 µM | [5] 1.75 µM | [6] 1.38 µM | [16] 5.16 µM | [7] 5.14 µM | [8] 2.3 µM | [17] 5.48 µM | [18] 3.78 µM | [9] 1.53 µM | [19] 1.53 µM | [10] 8.73 µM | [11] 3.92 µM | [12] 1.83 µM | [13] 1.82 µM | [14] 2.71 µM | [15] 3.09 µM

COc1ccc2oc(=N)c(C(N)=S)cc2c1
inactive: [1] 37.8 µM | [2] 25.5 µM | [3] 30.4 µM | [4] 31.2 µM | [5] 28.4 µM | [6] 17.5 µM | [7] 32.4 µM | [8] 25.1 µM | [17] 27.2 µM | [18] 31.8 µM | [9] 32 µM | [19] 29 µM | [10] 18.4 µM | [11] 16.8 µM | [12] 27.7 µM | [13] 37.1 µM | [14] 24.9 µM | [15] 21.1 µM

O=C(CNc1ccccc1[N+](=O)[O-])Nn1c(-c2ccccc2)nc2ccccc2c1=O
inactive: [2] 19.1 µM | [3] 23.5 µM | [4] 22.8 µM | [5] 16.3 µM | [6] > 10 µM | [16] 26.2 µM | [7] 16.7 µM | [8] 24.5 µM | [17] 25.8 µM | [18] 20.1 µM | [9] 17.5 µM | [19] 19.2 µM | [11] 25.7 µM | [12] 19.1 µM | [13] 20.6 µM | [14] 11.3 µM | [15] 19.9 µM

NC(Cc1ccc(O)cn1)C(=O)NC(C(=O)O)c1ccccc1 (stereo not given)
inactive: [1] > 100 µM | [2] > 100 µM | [3] > 100 µM | [4] > 100 µM | [5] > 100 µM | [6] > 100 µM | [16] > 100 µM | [8] > 100 µM | [17] > 100 µM | [18] > 100 µM | [9] > 100 µM | [19] > 100 µM | [11] > 100 µM | [12] > 100 µM | [13] > 100 µM | [14] > 100 µM | [15] > 100 µM

COC(=O)[C@H](Cc1c[nH]c2ccccc12)NP(=O)(OCCC#N)OCC1OC(n2cc(C)c(=O)[nH]c2=O)CC1N=[N+]=[N-] (stereo not given in full)
inactive: [1] > 100 µM | [2] > 100 µM | [4] > 100 µM | [5] > 100 µM | [6] > 100 µM | [7] > 100 µM | [8] > 100 µM | [17] > 100 µM | [18] > 100 µM | [9] > 100 µM | [19] > 100 µM | [10] > 100 µM | [11] > 100 µM | [12] > 100 µM | [13] > 100 µM | [14] > 100 µM | [15] > 100 µM
